PubChem BioAssay (NCI)
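Test compounds were applied to cells in 96-well plates for 48 hours at 5 doses. The concentration for full growth arrest is given as TGI.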 Where a SMILES comes first, the peptide text is derived from it. The star is where a group is joined. Cbz = O=C(OCc1ccccc1)*

Key:
Assay in all cases: inhibition of tumour cell growth, NCI panel, 48 h
[1] = system: NCI-H226 lung
[2] = system: COLO 205 colon
[3] = system: RPMI-8226 leukemia
[4] = system: MDA-MB-231 breast
[5] = system: SK-OV-3 ovarian
[6] = system: HCT-15 colon
[7] = system: DU-145 prostate
[8] = system: SNB-75 CNS
[9] = system: HCT-116 colon
[10] = system: HCC-2998 colon
[11] = system: A498 renal
[12] = system: SK-MEL-5 melanoma
[13] = system: MCF7 breast
[14] = system: SNB-19 CNS
[15] = system: IGROV1 ovarian

Compound | TGI [1] | TGI [2] | TGI [3] | TGI [4] | TGI [5] | TGI [6] | TGI [7] | TGI [8] | TGI [9] | TGI [10] | TGI [11] | TGI [12] | TGI [13] | TGI [14] | TGI [15]
CN1C2CCC1CC(=CCOC(c1ccc(F)cc1)c1ccc(F)cc1)C2 | 37.4 µM | 30.5 µM | 38 µM | 37.1 µM | 31.3 µM | 29.6 µM | 30.5 µM | 27.1 µM | 24.6 µM | 13.3 µM | 28.7 µM | 23.2 µM | 34.6 µM | 37.8 µM | 30.1 µM
Fc1cc(-c2cc(-c3ccccc3)no2)c(Cl)cc1Cl | > 23.3 µM | > 16.2 µM | 34 µM | 32.8 µM | > 50.3 µM | > 68.4 µM | > 48.6 µM | > 54.4 µM | > 31.7 µM | > 72 µM | > 54 µM | > 33.5 µM | > 100 µM | > 62.5 µM | > 50.8 µM
COc1ccc(-[n+]2nc(S(=O)(=O)O)c(/C=C/c3ccc(N(C)C)cc3)cc2C#N)cc1 | > 100 µM | > 100 µM | > 100 µM | > 100 µM | > 100 µM | > 100 µM | > 100 µM | > 100 µM | > 100 µM | > 100 µM | > 100 µM | > 100 µM | > 100 µM | > 100 µM | > 100 µM
COC(=O)C1=C(C(=O)NNc2ccccc2)N(c2cccnc2Cl)C(c2ccccc2)=CC1c1ccccc1 (stereo not given) | > 100 µM | > 100 µM | 82.8 µM | > 100 µM | > 100 µM | > 100 µM | > 100 µM | > 100 µM | > 100 µM | > 100 µM | > 100 µM | > 100 µM | > 100 µM | > 100 µM | > 100 µM
CCCCCCc1cc2cc(C(=O)Nc3ccccc3)c(=N)oc2cc1O | > 100 µM | > 100 µM | > 100 µM | > 100 µM | > 26.5 µM | > 100 µM | > 100 µM | > 100 µM | 6.59 µM | 20.8 µM | > 100 µM | 8.41 µM | > 100 µM | > 73.8 µM | > 100 µM
CC1CCC(=O)C(C(=O)CC2CC(=O)N(C)C(=O)C2)C1 (stereo not given) | > 100 µM | > 100 µM | > 100 µM | > 100 µM | > 100 µM | > 100 µM | > 100 µM | > 100 µM | > 100 µM | > 100 µM | > 100 µM | > 100 µM | > 100 µM | > 100 µM | > 100 µM
O=C(O)CCC(NC(=O)OCc1ccccc1)C(=O)NC(Cc1cnc[nH]1)C(=O)O (stereo not drawn) (Cbz-Glu-His-OH; configuration not given here) | > 100 µM | > 100 µM | > 100 µM | > 100 µM | > 100 µM | > 100 µM | > 100 µM | > 100 µM | > 100 µM | > 100 µM | > 100 µM | > 100 µM | > 100 µM | > 100 µM | > 100 µM
CCOC1OC(=O)c2cc3ccc4c(c3c(-c3ccc5c(c3)OCO5)c21)OCO4 (stereo not given) | > 74 µM | 5.16 µM | > 100 µM | > 100 µM | > 29.9 µM | > 100 µM | > 100 µM | 15.5 µM | 18.6 µM | 20.3 µM | > 100 µM | 27 µM | > 100 µM | > 100 µM | > 100 µM
CCOC(=O)CC[C@H](NC(=O)[C@H](N)Cc1ccc(N(CCCl)CCCl)cc1)C(=O)OCC | > 72 µM | 52.9 µM | > 100 µM | > 58.8 µM | > 72.8 µM | > 55.7 µM | 43.9 µM | 35.3 µM | > 68 µM | > 48.6 µM | > 100 µM | 23.5 µM | > 87.3 µM | > 96 µM | > 65.7 µM
O=C(O)C(NCc1ccccc1)C(NCc1ccccc1)C(=O)O (stereo not given) | > 100 µM | > 100 µM | > 100 µM | > 100 µM | > 100 µM | > 100 µM | > 100 µM | > 100 µM | > 100 µM | > 100 µM | > 100 µM | > 100 µM | > 100 µM | > 100 µM | > 100 µM
COC(=O)C1=C(O)C(C(=O)OC)[C@]2(O)[C@H](C(=O)OC)[C@H]1C[C@@H](c1ccc(C(F)(F)F)cc1)[C@H]2C(=O)OC (stereo not given in full) | 7.36 µM | 11.5 µM | > 100 µM | > 100 µM | > 100 µM | > 100 µM | 28.1 µM | 26.7 µM | 5.96 µM | 14.7 µM | 13.9 µM | 10.9 µM | > 100 µM | 68.9 µM | 29 µM
CCOC(=O)C12OC(CCC1=O)C(C(=O)OC)=C2C(=O)OC (stereo not given) | > 10 µM | > 10 µM | > 10 µM | > 10 µM | > 10 µM | > 10 µM | > 10 µM | > 10 µM | > 10 µM | > 10 µM | > 10 µM | > 10 µM | > 10 µM | > 10 µM | > 10 µM
CN(C)CCCN1CCC2(CCC(C(C)(C)C)CC2)CC1 | 19.9 µM | 3.04 µM | 10.5 µM | 3.91 µM | 22.8 µM | 9.55 µM | 19.3 µM | 4.11 µM | 3.19 µM | 0.417 µM | 4.6 µM | 3.02 µM | 3.07 µM | 11.8 µM | 9.03 µM
O=C1CCCC1CN1CCCC1 (stereo not given) | > 100 µM | 8.74 µM | 6.8 µM | 31.3 µM | 27.7 µM | 5.89 µM | > 66.4 µM | 31 µM | 11.7 µM | > 60.4 µM | 45.1 µM | 31.9 µM | 8.53 µM | > 100 µM | 26.6 µM
CC(CO)(CO)N1C(=O)C2C3C=CC(C3)C2C1=O (stereo not given) | > 100 µM | > 100 µM | > 100 µM | > 100 µM | > 100 µM | > 100 µM | > 100 µM | > 100 µM | > 100 µM | > 100 µM | > 100 µM | > 100 µM | > 100 µM | > 100 µM | > 100 µM
COc1cc(NS(C)(=O)=O)ccc1Nc1c2ccccc2nc2c1[nH]c1ccc(NC3OC(CO)C(O)C(O)C3O)cc12 (stereo not given) | 0.201 µM | 2.76 µM | 3.85 µM | 8.11 µM | 0.299 µM | 2.14 µM | 0.245 µM | 0.388 µM | 1.43 µM | 0.809 µM | 0.881 µM | 1.31 µM | 10.1 µM | 1.46 µM | 3.47 µM
Nc1nc(N)c2c3c(cnc2n1)CC(c1ccccc1)CC3 (stereo not given) | > 100 µM | > 100 µM | > 100 µM | 96.8 µM | 63 µM | > 100 µM | > 100 µM | 35.9 µM | 32.5 µM | > 100 µM | > 100 µM | > 100 µM | 30.4 µM | 46.8 µM | 21.7 µM
CC#CCOC(=O)c1ccccc1OC(C)=O | > 100 µM | > 100 µM | > 100 µM | > 100 µM | > 100 µM | > 100 µM | > 100 µM | > 100 µM | > 100 µM | > 100 µM | > 100 µM | > 100 µM | > 100 µM | > 100 µM | > 100 µM
O=C(Oc1ccccn1)c1cc2cc(CCl)ccc2oc1=O | > 100 µM | > 100 µM | > 100 µM | 46.6 µM | > 100 µM | > 100 µM | > 100 µM | 62.1 µM | 69.4 µM | > 100 µM | > 100 µM | > 100 µM | > 100 µM | 71.2 µM | > 100 µM
Cc1ccnc2[nH]c3ccccc3c(=O)c12 | > 100 µM | 59.1 µM | 95.8 µM | > 100 µM | > 100 µM | > 100 µM | > 100 µM | 32.1 µM | > 100 µM | 65 µM | > 100 µM | 33.2 µM | > 100 µM | > 100 µM | 49.5 µM
